Experimental data published in the SangsterLogP compilation.

Experiment: method code SF, from DOI: 10.1002/jps.2600790712, PMID: 2398468

Compound `C[C@H](CCCNCc1ccccc1)[C@H]1CC[C@H]2[C@@H]3C[C@H](O)[C@@H]4C[C@H](O)CC[C@]4(C)[C@H]3CC[C@]12C` has a logP of 4.15.

Experiment: method code SF-AS, from DOI: 10.1002/jps.2600790712, PMID: 2398468

Going from `C[C@H](CCC(=O)NCc1ccccc1)[C@H]1CC[C@H]2[C@@H]3[C@H](O)C[C@@H]4C[C@H](O)CC[C@]4(C)[C@H]3C[C@H](O)[C@]12C` to `C[C@H](CCCNCc1ccccc1)[C@H]1CC[C@H]2[C@@H]3[C@H](O)C[C@@H]4C[C@H](O)CC[C@]4(C)[C@H]3C[C@H](O)[C@]12C`, the logP rises from 3.54 to 3.82.

`C[C@H](CCCNCc1ccccc1Cl)[C@H]1CC[C@H]2[C@@H]3CC[C@@H]4C[C@H](O)CC[C@]4(C)[C@H]3CC[C@]12C` and `C[C@H](CCCNCc1ccccc1)[C@H]1CC[C@H]2[C@@H]3CC[C@@H]4C[C@H](O)CC[C@]4(C)[C@H]3CC[C@]12C` are within 0.2 log units of each other in logP: 5.05 for the first, 4.9 for the second.

Going from `C[C@H](CCCN)[C@H]1CC[C@H]2[C@@H]3[C@@H](O)C[C@@H]4C[C@H](O)CC[C@]4(C)[C@H]3CC[C@]12C` to `C[C@H](CCCNCc1ccccc1)[C@H]1CC[C@H]2[C@@H]3[C@H](O)C[C@@H]4C[C@H](O)CC[C@]4(C)[C@H]3CC[C@]12C`, the logP rises from 4 to 4.2.

`C[C@H](CCCNCc1cccc(Cl)c1)[C@H]1CC[C@H]2[C@@H]3CC[C@@H]4C[C@H](O)CC[C@]4(C)[C@H]3CC[C@]12C` and `C[C@H](CCCNCc1ccc(Cl)cc1)[C@H]1CC[C@H]2[C@@H]3CC[C@@H]4C[C@H](O)CC[C@]4(C)[C@H]3CC[C@]12C` are within 0.2 log units of each other in logP: 4.95 for the first, 5 for the second.

For `C[C@H](CCCNCc1ccccc1)[C@H]1CC[C@H]2[C@@H]3CC[C@@H]4C[C@H](O)CC[C@]4(C)[C@H]3C[C@H](O)[C@]12C`, the logP was 4.8.
